Measured values reported in ChEMBL document CHEMBL1201862, “PubChem BioAssay data set” (2004).
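96-well plates; 48 h exposure; 5 concentrations. Endpoints by linear interpolation between flanking doses. Not reached: highest tested concentration assigned. Abbreviation: GI50, concentration required for 50% inhibition of growth.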 The source made the active and inactive calls. Cut-off read from the data, not from the text of the source: active = GI50 up to about 1.1 µM and inactive = higher.

Experiments:
Test in all cases: NCI anticancer screen, dose series, 48 h
[1] = tested on: UO-31
[2] = tested on: RXF 393
[3] = tested on: U-251
[4] = tested on: SF-539
[5] = tested on: SF-295
[6] = tested on: SR
[7] = tested on: SNB-19
[8] = tested on: CCRF-CEM
[9] = tested on: 786-0
[10] = tested on: M14
[11] = tested on: HT-29
[12] = tested on: SNB-75
[13] = tested on: SK-MEL-28
[14] = tested on: A549
[15] = tested on: SW-620
[16] = tested on: SNB-78
[17] = tested on: NCI-H226

Measured: GI50

N=c1n(CC(=O)NC23CC4CC(CC(C4)C2)C3)c2ccccc2n1CC(=O)NC12CC3CC(CC(C3)C1)C2
inactive: [1] 13.2 µM | [2] 1.75 µM | [3] 1.66 µM | [4] 1.92 µM | [5] 2.06 µM | [6] 1.87 µM | [7] 1.66 µM | [8] 2.8 µM | [9] 1.8 µM | [10] 1.96 µM | [11] 1.8 µM | [12] 2.29 µM | [13] 1.79 µM | [14] 2.07 µM | [15] 1.63 µM | [16] 2.91 µM

O=c1c2cc(Br)cc(Br)c2nc(CCCl)n1-c1ccc(O)c([N+](=O)[O-])c1
inactive: [1] 19.7 µM | [3] 18.4 µM | [4] 21.4 µM | [17] 19.6 µM | [5] 24.1 µM | [6] 41.5 µM | [7] 20.1 µM | [8] 20.7 µM | [9] 18.3 µM | [10] 17.2 µM | [11] 20.6 µM | [12] 19.8 µM | [13] 19.7 µM | [14] 15.5 µM | [15] 19.4 µM | [16] 32.4 µM

C/C(=N/NS(=O)(=O)c1ccc(C)cc1)c1cccc[n+]1[O-]
inactive: [1] > 100 µM | [3] > 100 µM | [4] > 100 µM | [5] > 100 µM | [6] > 100 µM | [7] > 100 µM | [8] > 100 µM | [9] > 100 µM | [10] > 100 µM | [11] > 100 µM | [12] > 100 µM | [13] > 100 µM | [14] > 100 µM | [15] > 100 µM | [16] > 100 µM

O=C1/C(=C/c2ccc3c(c2)OCCO3)CCC/C1=C\c1ccc2c(c1)OCCO2
inactive: [1] 82.4 µM | [2] 20 µM | [3] 14.2 µM | [4] 19.2 µM | [5] 17 µM | [6] 23.8 µM | [7] 34.8 µM | [8] 29.9 µM | [9] 22.9 µM | [10] 19 µM | [11] 6.9 µM | [12] 24.9 µM | [13] 24.3 µM | [14] 23.8 µM | [15] 18.2 µM | [16] 26.8 µM

C/C(CC(=O)CCCC(=O)Nc1ccc(Cl)cc1Cl)=N/NC(=O)CC#N
inactive: [1] > 100 µM | [2] > 100 µM | [3] > 100 µM | [4] > 100 µM | [17] > 100 µM | [5] > 100 µM | [7] > 100 µM | [8] > 100 µM | [9] > 100 µM | [10] > 100 µM | [11] > 100 µM | [12] > 100 µM | [13] > 100 µM | [14] > 100 µM | [15] > 100 µM | [16] > 100 µM

OC12c3ccccc3C1(N1CCOCC1)CCCCC21OCCCO1 (stereo unspecified)
inactive: [2] > 100 µM | [3] > 100 µM | [4] > 100 µM | [17] > 100 µM | [5] > 100 µM | [7] > 100 µM | [8] > 100 µM | [9] > 100 µM | [10] > 100 µM | [11] > 100 µM | [12] > 100 µM | [13] > 100 µM | [14] > 100 µM | [16] > 100 µM

CCCCCCCCCCCc1nnc(N)o1
inactive: [1] 13.6 µM | [3] > 100 µM | [4] > 100 µM | [17] > 100 µM | [5] > 100 µM | [6] > 10 µM | [7] 18.9 µM | [9] > 100 µM | [10] > 100 µM | [11] > 100 µM | [12] > 100 µM | [13] > 100 µM | [14] > 100 µM | [15] > 100 µM | [16] > 100 µM

COc1cc(C(=O)C/C(CCC(=O)Nc2ccccc2[N+](=O)[O-])=N\NC(=O)C(N)=O)ccc1O
inactive: [1] > 100 µM | [2] 76.4 µM | [3] > 100 µM | [4] > 100 µM | [17] > 100 µM | [5] > 100 µM | [6] > 100 µM | [7] > 100 µM | [8] > 100 µM | [9] > 100 µM | [10] > 100 µM | [11] > 100 µM | [13] > 100 µM | [14] > 100 µM | [15] > 100 µM | [16] > 100 µM

CC1CC#CCOC(=O)CCCC1=O (stereo unspecified)
inactive: [2] > 100 µM | [3] > 100 µM | [4] > 100 µM | [17] > 100 µM | [5] > 100 µM | [7] > 100 µM | [8] > 100 µM | [9] > 100 µM | [10] > 100 µM | [11] > 100 µM | [12] > 100 µM | [13] > 100 µM | [14] > 100 µM | [15] > 100 µM | [16] > 100 µM

CC(=O)OCC1OC(n2cccnc2=O)C(OC(C)=O)C1OC(C)=O (stereo unspecified)
inactive: [1] > 100 µM | [2] > 100 µM | [3] > 100 µM | [17] > 100 µM | [6] > 100 µM | [7] > 100 µM | [8] > 100 µM | [9] > 100 µM | [10] > 100 µM | [11] > 100 µM | [12] > 100 µM | [13] > 100 µM | [14] > 100 µM | [15] > 100 µM | [16] > 100 µM

CC(=O)OC1(C)C(=O)OC1(C)C(C)=O (stereo unspecified)
inactive: [1] > 100 µM | [2] > 100 µM | [3] > 100 µM | [4] > 100 µM | [17] > 100 µM | [5] > 100 µM | [7] > 100 µM | [8] > 100 µM | [9] > 100 µM | [10] > 100 µM | [11] > 100 µM | [12] > 100 µM | [13] > 100 µM | [14] > 100 µM | [15] > 100 µM | [16] > 100 µM

CS(=O)(=O)NNS(=O)(=O)c1ccc(Br)cc1
inactive: [1] > 100 µM | [2] > 100 µM | [3] > 100 µM | [4] > 100 µM | [17] > 100 µM | [7] > 100 µM | [8] > 100 µM | [9] > 100 µM | [10] > 100 µM | [11] > 100 µM | [12] 87.7 µM | [13] > 100 µM | [14] > 100 µM | [15] > 100 µM | [16] > 100 µM

Cc1ccc2nc3c(Cl)cc(=O)cc-3sc2c1
inactive: [1] 34 µM | [3] 20.7 µM | [4] 3.38 µM | [17] 27.2 µM | [5] 25.8 µM | [6] > 10 µM | [7] > 10 µM | [8] 1.96 µM | [9] 19.8 µM | [10] 22.1 µM | [11] 29.4 µM | [12] 21.5 µM | [13] 35 µM | [14] 19.5 µM | [15] 21.6 µM | [16] 39.2 µM
